ChEMBL document CHEMBL1129869, “SPORANDOL: A NOVEL ANTIPARASITIC BINAPHTHALENE FROM CHRYSOSPORIUM MERIDARIUM” (Bioorg Med Chem Lett, 1997)
Active and inactive are the calls of the source. The calls are words filed in the database; no cut-off is given here.

Assays:
[1] = tested on: Dipetalogaster maximus; assay: Antiparasitic activity against ecto parasite Dipetalogaster maximus in mouse at a dose of 190 mg/kg; Active; assay type: functional, organism-based; design: dose 190 mg/kg
[2] = tested on: Fasciola hepatica; assay: Antiparasitic activity against endo parasite Fasciola hepatica in mouse at a dose of 190 mg/kg; Active; assay type: functional, organism-based; design: dose 190 mg/kg

Structure (SMILES): COc1cc2cc(C)c(C(C)=O)c(O)c2c(O)c1-c1c(OC)cc2cc(C)c(C(C)=O)c(O)c2c1O
- Activity [1]: Active
- Activity [2]: Active
